Data as given in US5260425A, “Anthracycline derivatives having cytostatic activity” (priority 1988, dated 1993).
Converted amounts (≈) assume the structure as drawn. Where two headings read alike, the source gives them in different places.

Assays:
[1] = Determination of the indicative toxicity; settings: mouse, in vivo, ip; 3xip,q3d (three intraperitoneal administrations, 3 days interval); survival day 14
Method: To determine the indicative toxicity, NMRI mice receive an intraperitoneal injection of various doses of the test substance dissolved in 0.5 ml of 5% strength glucose solution on day 0. Control groups receive merely 0.5 ml of 5% strength glucose solution. 5 mice are used for each concentration of the test substance. The number of mice surviving on day 14 is determined, and from this the LD5, LD50 and LD95 are determined by the Litchfield-Wilcoxon method. The toxicity (LD50 (mg/kg)) of the compounds described here is summarized in Table 3 by comparison with adriamycin.

[2] = system: sensitive and resistant L1210 leukemia cells; experiment: Proliferation test (MTT reduction), cross-resistance to doxorubicin/adriamycin in vitro; format: cell-based, mouse; settings: for Cross-resistance to doxorubicin (in words): L1210, MTT, in vitro; for Degree of resistance of the cell / Cross-resistance to adriamycin (degree of cross-resistance): MTT, 3d; for Degree of resistance of the cell: IC50 resistant subline related to IC50 sensitive subline; for Cross-resistance to adriamycin (degree of cross-resistance): adriamycin = 100.0
Method: L1210, A 549 or HT 29 in the exponential phase of growth are incubated in a cell density of 5×10^3 cells/ml in RPMI 1640 in a 96-well microtiter plate with various concentrations of the test substance at 37° C., 5% CO2 and 95% relative humidity for 72 h. Control experiments receive merely growth medium in place of the test substance. Quadruplicate determinations are set up for each test substance and for the control. After incubation for 65 h, 50 μl of an MTT solution (2.5 mg/ml; MTT=3-(4,5-dimethylthiazol-2-yl)-2,5-diphenyltetrazoliumbromide) in phosphate-buffered saline) are added. MTT is reduced to a dark red insoluble formazan dyestuff in the presence of live cells. This reaction is complete after 7 h (L1210 cells) or after 24 h (A 549, HT 29 cells), and the supernatant medium is carefully removed by aspiration. The insoluble dyestuff is dissolved by addition of 100 μl of DMSO (dimethyl sulfoxide) and the extinction of the resulting solution at a wavelength of 492 nm is then measured for each well in a multiscan 340 CC photometer from Flow.
The ratio of the extinctions for treated and untreated cells provides a dose-effect plot from which the concentration which just kills 50% of the cells (IC50) can be read off. The coefficient of variation for repeat investigations is less than 15%.
The cross-resistance between the particular test compound and doxorubicin as standard compound is determined with the aid of the MTT test (see above for method) on sensitive and resistant L1210 leukemia cells.
The resistant cell line was established by incubation of a sensitive subline with the reference compound in concentrations which increased stepwise.
The IC50 of the test compound on the resistant subline related to the IC50 of the sensitive subline provides both the degree of resistance for the test Compound (DR(T)) and that for the reference compound (DR(R)) in accordance with the formula [formula]
In addition, the degree of cross-resistance (DCR) for the test compound is calculated in accordance with the formula [formula]
In the case where the loss of effect of the test compound on the resistant line in relation to the sensitive line is greater than that of the reference compound it is possible for the degree of cross-resistance to be above 100%.

[3] = system: L1210 mouse leukemia cells; experiment: Formation of colonies of L1210 leukemia cells in soft agar (cytotoxicity in vitro); format: cell-based; settings: Mus musculus
Method: The cytostatic activity of the compounds according to the invention has been tested using L1210 mouse leukemia cells. Employed for this purpose was the formation of colonies of L1210 leukemia cells in agar plates. This method is used to detect the effect of the test substances on the growth behavior of the cells over 1 hour or over several generations. In this connection, with a cell cycle time of 10-12 hours about 14 consecutive generations are observed in the 7 days the test lasts. In this test, the substances having cytostatic activity according to the invention bring about a reduction in the number of colonies to be observed by comparison with an untreated control sample.
Procedure for determining the formation of colonies of L1210 leukemia cells in soft agar
500 leukemia cells per plate were incubated with various concentrations of the test substance at 37° C. for 1 hour. The cells were then washed twice with McCoy5A medium and finally, after addition of 0.3% agar, poured into Petri dishes. Controls were incubated only with fresh medium. In place of the incubation for one hour, in some cases various concentrations and test substances were mixed with the upper agar layer in order in this way to achieve continuous exposure of the cells throughout the incubation time. After the agar had solidified, the plates were incubated in an incubator at 37° C. for 7 days (5% by volume CO2, 95% relative humidity). The number of colonies which had been produced with a diameter of more than 60 μm was then counted. The results have been reported as the number of colonies in treated agar plates as a percentage of the untreated control. The IC50 was determined as a measure of the activity of the substance from the dose-effect plot obtained in this way. The results for the compounds described herein, by comparison with adriamycin, are compiled in Table 1.

L1210 leukemia = experiment: In vivo activity on L1210 leukemia of the mouse (antitumor activity T/C); settings: for response vs control in vivo at 2.8 mg/kg: dose 2.80 mg/kg
Method: Ascites fluid is removed from DBA2 mice (female, 18-20 g) under sterile conditions 7 days after inoculation of tumor cells. The ascites is washed three times with PBS (phosphate-buffered saline), counted and adjusted to a cell count of 10^6 in 0.2 ml of PBS.
10^6 cells, suspended in 0.2 ml of PBS, are then injected intraperitoneally into DBF1 mice (female, 18-20 g). 6 animals per group are used for each substance concentration and as controls.
a) The animals are weighed on days 1 and 5 after injection of the test substance. A weight loss of more than 20% on day 5 is regarded as an indicator of a toxic effect of the substance.
b) At the end of the experiment (death of all animals or surviving animals on day 60) the mean survival time of the animals in the particular groups is determined as long as at least 65% of the animals were still alive on day 5 of the experiment. The mean survival time is determined only for animals which die during the course of the experiment. Long-term survivors (LTS) are not included in this calculation and are reported separately.
The antitumor activity (T/C) for the particular substance concentration is determined from the mean survival time (MSTT) in the treated groups and in the control groups (MSTC) as a percentage of the untreated controls in accordance with the following formula: [formula]
The T/C values and the treatment regimen employed in each case are compiled in Table 3, together with the indicative toxicity. T/C values greater than 125% are regarded as an indicator of a significant antitumor activity of the test substance.

[4] = Determination of the indicative toxicity; settings: mouse, in vivo; 3xiv,q3d (three intravenous administrations, 3 days interval); survival day 14
[5] = 168 h, continuous incubation, 7 days, L1210 colonies in agar, read-out: IC50, continuous incubation
[6] = 1 h incubation, then 7 days, L1210 colonies in agar, read-out: IC50, 1 h incubation
[7] = L1210, 168 h, read-out: IC50, continuous incubation, continuous incubation, 7 days, L1210 colonies in agar
[8] = L1210, read-out: IC50, 1 h incubation, 1 h incubation, then 7 days, L1210 colonies in agar
[9] = Mus musculus, L1210, iv, read-out: T/C, L1210-leukemia in vivo

| Structure (SMILES) | LD50 at 336 h [1] | Cross-resistance to doxorubicin (in words) [2] | Degree of resistance of the cell [2] | Cross-resistance to adriamycin (degree of cross-resistance) [2] | IC50 [3, 5] | IC50 [3, 6] | IC50 [3, 7] | IC50 [3, 8] | LD50 at 336 h [4] | also measured |
| --- | --- | --- | --- | --- | --- | --- | --- | --- | --- | --- |
| CC[C@@]1(O)C[C@H](O[C@H]2C[C@H](N(C)Cc3ccco3)[C@H](O)[C@H](C)O2)c2c(O)c3c(c(O)c2[C@H]1O)C(=O)c1cccc(O)c1C3=O [Compound 6, 7-O-(3'-N-(2-Furfuryl)-3'-N-methyl-alpha-L-daunosaminyl)-β-rhodomycinone] | 1 to 5 mg/kg | not cross-resistant to doxorubicin | 2.0 | 2.0% | 0.03 µg/mL (≈ 0.0492 µM) | 0.038 µg/mL (≈ 0.0623 µM) |  |  |  | response vs control in vivo at 2.8 mg/kg (L1210 leukemia; Mus musculus, L1210, ip, 3xip,q3d, % of the control): 141%; response vs control in vivo at 2.8 mg/kg (L1210 leukemia; Mus musculus, L1210, iv, 3xiv,q3d, % of the control): 129% |
| CC[C@@]1(O)C[C@H](O[C@H]2C[C@H](N(C)Cc3ccsc3)[C@H](O)[C@H](C)O2)c2c(O)c3c(c(O)c2[C@H]1O)C(=O)c1cccc(O)c1C3=O [Compound 12, 7-O-(3'-N-Methyl-3'-N-(3-thenyl)-alpha-L-daunosaminyl)-β-rhodomycinone] |  |  |  |  |  |  | 0.032 µg/mL (≈ 0.0511 µM) | 0.17 µg/mL (≈ 0.272 µM) | 2 to 5 mg/kg |  |
| CC[C@@]1(O)C[C@H](O[C@H]2C[C@H](N(C)CC3CO3)[C@H](O)[C@H](C)O2)c2c(O)c3c(c(O)c2[C@H]1O)C(=O)c1c(O)ccc(O)c1C3=O (stereo partly drawn) [Compound 14m, 7-O-(3'-N-Glycidyl-3'-N-methyl-alpha-L-daunosaminyl)-β-isorhodomycinone] |  |  |  |  |  |  | 0.005 µg/mL (≈ 0.00831 µM) | 0.0024 µg/mL (≈ 0.00399 µM) | 0.3 to 0.75 mg/kg | response vs control in vivo at 0.13 mg/kg (L1210 leukemia; [9]): 104% |
| COc1cccc2c1C(=O)c1c(O)c3c(c(O)c1C2=O)C[C@@](O)(C(=O)CO)C[C@@H]3O[C@H]1C[C@H](N)[C@H](O)[C@H](C)O1 [Adriamycin, reference compound] | 2.7 mg/kg |  | 60-80 | 100.0% | 0.02 µg/mL (≈ 0.0368 µM) | 0.04 µg/mL (≈ 0.0736 µM) |  |  |  | Animals recovered (longterm survivors) (L1210 leukemia; 3xip,q3d, L1210-leukemia in vivo): Two of 6 |
| C#CCN(C)[C@H]1C[C@H](O[C@H]2C[C@](O)(CC)[C@H](O)c3c(O)c4c(c(O)c32)C(=O)c2c(O)cccc2C4=O)O[C@@H](C)[C@H]1O [Compound 2, 7-O-(3'-N-methyl-3'-N-proparayl-alpha-L-daunosaminyl)-β-rhodomycinone] |  |  |  |  | 0.08 µg/mL (≈ 0.141 µM) | 0.3 µg/mL (≈ 0.529 µM) |  |  | 2 to 5 mg/kg | response vs control in vivo at 1.2 mg/kg (L1210 leukemia; Mus musculus, L1210, iv, 3xiv,q3d, dose 1.20 mg/kg, % of the control): 144% |
| C=CCN(C)[C@H]1C[C@H](O[C@H]2C[C@](O)(CC)[C@H](O)c3c(O)c4c(c(O)c32)C(=O)c2c(O)cccc2C4=O)O[C@@H](C)[C@H]1O [Compound 1, 7-O-(3'-N-Allyl-3'-N-methyl-alpha-L-daunosaminyl)-β-rhodomycinone] | 1 to 5 mg/kg | not cross-resistant to doxorubicin | 10.0 | 19.0% |  |  | 0.01 µg/mL (≈ 0.0176 µM) | 0.08 µg/mL (≈ 0.14 µM) |  | response vs control in vivo at 1.19 mg/kg (L1210 leukemia; Mus musculus, L1210, ip, read-out: T/C, L1210-leukemia in vivo): 200%; response vs control in vivo at 1 mg/kg (L1210 leukemia; [9]): 146% |
